The source of these data is ChEMBL document CHEMBL1201862, “PubChem BioAssay data set” (2004).

The nature of assay [1]: Counterscreen for activators of the function of SWI/SNF related, matrix associated, actin dependent regulator of chromatin, subfamily a, member 2 (SMARCA2, BRM): Luminescence-based cell-based high throughput dose response assay to identify non-selective compounds using the VP16 reporter assay. The class given is functional. A general note: The purpose of a counterscreen is to sort out artefacts and off-target activity.

Assay [2] deals with SWI/SNF-related matrix-associated actin-dependent regulator of chromatin subfamily A member 2 (Homo sapiens, UniProt P51531). Description: Luminescence-based cell-based high throughput dose response assay to identify activators of the function of SWI/SNF related, matrix associated, actin dependent regulator of chromatin, subfamily a, member 2 (SMARCA2, BRM). The class given is functional.
Chain of SWI/SNF-related matrix-associated actin-dependent regulator of chromatin subfamily A member 2 (P51531 whole entry): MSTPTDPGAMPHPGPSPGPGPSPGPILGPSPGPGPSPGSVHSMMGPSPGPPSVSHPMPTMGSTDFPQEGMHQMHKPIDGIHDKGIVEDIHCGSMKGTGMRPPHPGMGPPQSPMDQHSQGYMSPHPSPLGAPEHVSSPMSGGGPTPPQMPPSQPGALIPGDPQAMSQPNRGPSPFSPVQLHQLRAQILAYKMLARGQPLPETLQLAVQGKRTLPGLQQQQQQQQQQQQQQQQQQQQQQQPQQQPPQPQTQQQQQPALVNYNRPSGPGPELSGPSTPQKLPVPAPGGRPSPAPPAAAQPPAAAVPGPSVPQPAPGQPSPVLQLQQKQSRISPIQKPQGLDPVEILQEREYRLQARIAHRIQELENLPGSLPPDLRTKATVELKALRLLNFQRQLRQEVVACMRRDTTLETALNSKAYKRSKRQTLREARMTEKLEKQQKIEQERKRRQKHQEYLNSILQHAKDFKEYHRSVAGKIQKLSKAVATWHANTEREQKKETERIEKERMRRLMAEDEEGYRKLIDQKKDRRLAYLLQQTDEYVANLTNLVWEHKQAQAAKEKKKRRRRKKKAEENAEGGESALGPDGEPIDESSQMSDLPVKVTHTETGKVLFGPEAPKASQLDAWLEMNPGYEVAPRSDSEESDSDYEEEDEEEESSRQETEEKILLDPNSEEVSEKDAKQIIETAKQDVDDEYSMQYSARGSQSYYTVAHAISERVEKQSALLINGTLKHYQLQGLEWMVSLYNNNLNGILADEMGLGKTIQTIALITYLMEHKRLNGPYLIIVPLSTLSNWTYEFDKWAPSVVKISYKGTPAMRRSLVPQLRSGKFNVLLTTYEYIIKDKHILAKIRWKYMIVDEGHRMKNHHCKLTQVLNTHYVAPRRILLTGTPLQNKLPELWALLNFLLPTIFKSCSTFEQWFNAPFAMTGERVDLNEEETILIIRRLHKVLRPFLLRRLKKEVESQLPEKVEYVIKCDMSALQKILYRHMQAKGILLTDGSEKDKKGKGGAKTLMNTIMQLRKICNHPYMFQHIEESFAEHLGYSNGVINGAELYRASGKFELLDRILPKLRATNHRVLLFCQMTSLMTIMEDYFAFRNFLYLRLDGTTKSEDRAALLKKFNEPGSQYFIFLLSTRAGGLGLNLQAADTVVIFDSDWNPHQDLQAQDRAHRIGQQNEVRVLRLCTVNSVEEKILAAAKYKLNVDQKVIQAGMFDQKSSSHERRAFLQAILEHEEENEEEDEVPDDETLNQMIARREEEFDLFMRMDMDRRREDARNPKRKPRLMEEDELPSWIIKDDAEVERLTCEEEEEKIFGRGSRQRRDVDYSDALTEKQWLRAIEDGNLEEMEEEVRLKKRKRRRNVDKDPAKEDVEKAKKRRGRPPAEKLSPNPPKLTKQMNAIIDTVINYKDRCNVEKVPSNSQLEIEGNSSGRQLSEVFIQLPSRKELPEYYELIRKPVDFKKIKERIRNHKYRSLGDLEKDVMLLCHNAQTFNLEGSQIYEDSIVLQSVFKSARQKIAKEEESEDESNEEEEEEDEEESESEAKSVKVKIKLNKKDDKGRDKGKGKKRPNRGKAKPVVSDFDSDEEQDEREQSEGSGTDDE

In the next assay the target is T1, Hexokinase (Trypanosoma brucei, UniProt Q38C41).
T1 sequence (Q38C41 whole entry): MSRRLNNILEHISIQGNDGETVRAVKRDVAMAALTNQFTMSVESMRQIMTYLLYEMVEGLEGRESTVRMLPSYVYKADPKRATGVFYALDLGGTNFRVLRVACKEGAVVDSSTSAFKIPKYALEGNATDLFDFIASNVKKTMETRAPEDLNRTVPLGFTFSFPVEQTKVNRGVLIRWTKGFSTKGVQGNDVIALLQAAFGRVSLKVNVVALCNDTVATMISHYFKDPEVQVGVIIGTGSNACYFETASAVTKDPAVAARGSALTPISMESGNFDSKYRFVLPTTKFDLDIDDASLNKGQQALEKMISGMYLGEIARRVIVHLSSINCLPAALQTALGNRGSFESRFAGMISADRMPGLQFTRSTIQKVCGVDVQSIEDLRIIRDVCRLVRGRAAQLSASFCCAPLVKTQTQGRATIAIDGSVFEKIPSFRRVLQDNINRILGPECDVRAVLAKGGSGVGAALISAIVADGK
Kind of assay: Confirmation assay for inhibitors of Trypanosoma brucei hexokinase 1-Analogue-first series. [Related pubchem assays (depositor defined):AID1430, AID1632, AID2516, AID2560, AID2579, AID2600, AID449725, AID492951]. The class given is functional.

Assay [3] concerns the target Glucose-6-phosphate 1-dehydrogenase (Homo sapiens, UniProt P11413). Description: human G6PD enzyme inhibitors, dose response, selectivity assay for P. falciparum G6PD inhibitor project, biochemical, fluorescence (AID 504792). The class given is functional.
Assay [4] is described as follows: inhibitors of clade B AD8 Env fusion, dose response, cell-based, cherry-pick (AID 652062).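 Also: luciferase signal from cell-cell fusion driven by HIV-1 clade B AD8 Env; potency is for inhibitors of fusion seen as a drop in luminescence.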 The class given is functional.
Assay [5] is described as follows: off-target signal loss in HeLa-CEM21 co-culture – HeLa F-luc CTL cells, cherry-picked, counter-screen for HIV-1 Env fusion inhibitor project, dose response (AID 652040).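 Also: potency for signal decrease marking cytotoxic or nonspecific inhibition.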 The class given is functional, cell-based.
Assay [6] is described as follows: CEM21 lymphoblast cell cytotoxicity, dose response, cytotoxicity control for viral fusion inhibitor project, CellTiter-Glo luminescence, cherry-picked (AID 652042).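 Also: potency for signal decrease meaning cytotoxicity.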 The class given is functional, cell-based.
The nature of assay [7]: inhibitors of HIV Env-driven cell fusion, dose response, cherry-pick (AID 652057). The class given is functional, cell-based.
Assay [8] can be described thus: ZM109 Env clade C HIV-1 fusion inhibitors, dose response, HeLa effector, CEM target cells, luciferase, cherry-pick (AID 652058). In kind it is functional, cell-based.
The target in a further assay is T2, Caspase-6 (Homo sapiens, UniProt P55212).
T2 sequence (P55212 whole entry): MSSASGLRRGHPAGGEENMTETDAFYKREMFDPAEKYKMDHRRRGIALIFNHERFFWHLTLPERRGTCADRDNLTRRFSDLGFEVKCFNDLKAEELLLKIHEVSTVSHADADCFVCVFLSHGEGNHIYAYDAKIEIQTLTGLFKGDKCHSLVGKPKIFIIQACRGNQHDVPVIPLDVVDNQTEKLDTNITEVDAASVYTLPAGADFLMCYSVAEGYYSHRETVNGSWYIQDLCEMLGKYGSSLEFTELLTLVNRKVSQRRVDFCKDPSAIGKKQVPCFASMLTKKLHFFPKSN
Kind of assay: human caspase-6 inhibitors, dose response, biochemical, VEID-R110 fluorescence, cherry-pick (AID 720632).

The target in assay [9] is T3, Rac GTPase-activating protein 1 (Homo sapiens, UniProt Q9H0H5).
T3 sequence (Q9H0H5 whole entry): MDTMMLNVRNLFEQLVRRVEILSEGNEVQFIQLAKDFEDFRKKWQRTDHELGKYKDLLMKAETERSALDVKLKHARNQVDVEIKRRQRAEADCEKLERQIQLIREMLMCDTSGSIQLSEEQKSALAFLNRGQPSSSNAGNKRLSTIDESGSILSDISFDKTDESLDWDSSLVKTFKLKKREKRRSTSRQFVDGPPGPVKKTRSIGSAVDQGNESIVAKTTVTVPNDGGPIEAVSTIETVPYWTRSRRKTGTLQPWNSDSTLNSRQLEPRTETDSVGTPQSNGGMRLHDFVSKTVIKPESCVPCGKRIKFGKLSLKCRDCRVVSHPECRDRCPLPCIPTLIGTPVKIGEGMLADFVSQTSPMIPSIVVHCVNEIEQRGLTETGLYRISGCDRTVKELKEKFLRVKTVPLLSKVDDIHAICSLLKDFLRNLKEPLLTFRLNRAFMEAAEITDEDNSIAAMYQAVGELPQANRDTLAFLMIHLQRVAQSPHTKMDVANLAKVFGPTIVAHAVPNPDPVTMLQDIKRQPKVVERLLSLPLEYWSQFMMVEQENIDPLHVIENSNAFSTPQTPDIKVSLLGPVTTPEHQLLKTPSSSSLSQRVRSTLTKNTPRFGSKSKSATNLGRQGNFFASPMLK
Description: MgcRacGAP GTPase-activating activity inhibitors, confirmation, biochemical, ADP Hunter fluorescence, primary and confirmatory (AID 624330). In kind it is functional.

The target of a further assay is Genome polyprotein (dengue virus type 2, UniProt P29990). Kind of assay: Dengue-2 NS5 methyltransferase inhibitors, primary screen, biochemical, confirmation dose response (AID 588689). In kind it is functional.
Chain of Genome polyprotein (P29990 2492-3391 limits assumed): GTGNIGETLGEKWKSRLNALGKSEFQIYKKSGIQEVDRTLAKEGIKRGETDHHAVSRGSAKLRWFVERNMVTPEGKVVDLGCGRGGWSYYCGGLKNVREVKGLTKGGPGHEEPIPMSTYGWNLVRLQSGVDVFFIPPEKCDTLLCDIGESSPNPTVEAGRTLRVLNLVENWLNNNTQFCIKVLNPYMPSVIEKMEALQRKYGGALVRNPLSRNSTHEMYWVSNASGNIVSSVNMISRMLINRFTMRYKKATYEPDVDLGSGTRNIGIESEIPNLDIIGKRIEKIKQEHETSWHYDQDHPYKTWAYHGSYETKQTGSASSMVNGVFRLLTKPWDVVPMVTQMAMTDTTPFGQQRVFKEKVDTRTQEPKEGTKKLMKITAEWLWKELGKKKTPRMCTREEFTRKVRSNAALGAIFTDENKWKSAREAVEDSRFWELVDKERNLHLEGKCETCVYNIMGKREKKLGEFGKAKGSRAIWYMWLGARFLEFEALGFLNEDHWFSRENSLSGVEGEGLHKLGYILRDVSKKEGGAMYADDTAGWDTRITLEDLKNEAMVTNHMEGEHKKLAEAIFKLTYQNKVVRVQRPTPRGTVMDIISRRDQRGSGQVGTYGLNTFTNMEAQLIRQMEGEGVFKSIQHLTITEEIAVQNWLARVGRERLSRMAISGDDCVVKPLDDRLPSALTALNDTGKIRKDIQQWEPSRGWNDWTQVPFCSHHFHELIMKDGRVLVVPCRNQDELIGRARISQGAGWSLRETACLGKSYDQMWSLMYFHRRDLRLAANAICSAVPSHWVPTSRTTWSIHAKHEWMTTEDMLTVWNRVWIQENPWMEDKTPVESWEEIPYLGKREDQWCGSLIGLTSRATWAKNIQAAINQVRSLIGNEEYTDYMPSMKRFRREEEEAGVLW
The target of assay [10] is T4, Mitochondrial peptide methionine sulfoxide reductase (Bos taurus, UniProt P54149).
T4 sequence (P54149 whole entry): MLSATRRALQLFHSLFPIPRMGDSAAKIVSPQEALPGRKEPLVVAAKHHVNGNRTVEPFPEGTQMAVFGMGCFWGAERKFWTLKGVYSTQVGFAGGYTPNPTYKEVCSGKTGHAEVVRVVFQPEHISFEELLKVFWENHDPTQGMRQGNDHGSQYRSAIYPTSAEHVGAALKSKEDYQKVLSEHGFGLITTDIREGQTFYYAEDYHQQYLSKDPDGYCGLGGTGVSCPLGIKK
Kind of assay: Absorbance-based biochemical high throughput dose response assay for activators of Methionine sulfoxide reductase A (MsrA). In kind it is functional.

Assay [11] has as its target Tyrosyl-DNA phosphodiesterase 2 (Homo sapiens, UniProt O95551). Kind of assay: human TDP2 enzyme inhibitors, dose response, biochemical, epi absorbance, IC50 (AID 743297).
Another assay concerns the target Nonstructural protein 1 (Influenza A virus, UniProt Q194T2). The class given is functional, Influenza A virus (A/California/07/2009(H1N1)).
Another assay concerns Vero. Kind of assay: Vero cell cytotoxicity, cytotoxicity control for flavivirus capping enzyme inhibitors (AID 588742). In kind it is functional. Conditions: Chlorocebus sabaeus.
For assay [12], the target named is T5, Interleukin-8 (Homo sapiens, UniProt P10145).
T5 sequence (P10145 whole entry): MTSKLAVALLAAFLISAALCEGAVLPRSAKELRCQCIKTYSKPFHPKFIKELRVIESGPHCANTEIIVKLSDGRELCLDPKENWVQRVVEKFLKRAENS
Description: Dose Response confirmation of uHTS small molecule hits for cystic fibrosis induced NFkb Inhibitors in a PAF-induced IL8 counterscreen. In kind it is functional. Conditions: read-out: IC50_Mean.

In assay [13] the target is T5, Interleukin-8. Kind of assay: Dose Response confirmation of uHTS small molecule hits for cystic fibrosis induced NFkb Inhibitors in a TNFa-induced IL8 counterscreen. The class given is functional. The settings on record: read-out: IC50_Mean.
Assay [14] can be described thus: Counterscreen for […] of the human trace amine associated receptor 1 (TAAR1): Fluorescence-based cell-based high throughput dose response assay to identify nonselective Ga16 agonists. In kind it is functional.
Assay [15] in a line: Counterscreen for antagonists of the human trace amine associated receptor 1 (hTAAR1): Fluorescence-based cell-based high throughput dose response assay to identify nonselective Ga16 antagonists. In kind it is functional.
For assay [16], the target named is T6, Trace amine-associated receptor 1 (Homo sapiens, UniProt Q96RJ0).
T6 sequence (Q96RJ0 whole entry): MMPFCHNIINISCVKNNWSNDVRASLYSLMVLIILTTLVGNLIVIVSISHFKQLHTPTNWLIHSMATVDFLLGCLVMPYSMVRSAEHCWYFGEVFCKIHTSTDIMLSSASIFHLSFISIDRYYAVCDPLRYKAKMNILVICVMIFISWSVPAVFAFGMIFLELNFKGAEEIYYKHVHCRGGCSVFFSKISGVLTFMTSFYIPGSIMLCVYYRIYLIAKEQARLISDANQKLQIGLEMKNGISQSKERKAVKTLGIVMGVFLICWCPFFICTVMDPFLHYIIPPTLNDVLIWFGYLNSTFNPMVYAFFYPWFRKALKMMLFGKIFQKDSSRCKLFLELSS
Kind of assay: Fluorescence-based cell-based high throughput dose response assay to identify antagonists of the human trace amine associated receptor 1 (TAAR1). The class given is functional.

Assay [17] has as its target T6, Trace amine-associated receptor 1. Kind of assay: Counterscreen for antagonists of the human trace amine associated receptor 1 (hTAAR1): Fluorescence-based cell-based high throughput dose response assay to identify TAAR1 Agonists. In kind it is functional.
For a further assay, the target named is Paired box protein Pax-8 (Homo sapiens, UniProt Q06710). Kind of assay: inhibitors of PAX8-driven TPO luciferase reporter, dose response, RMG-I cells, cherry-pick (AID 687027).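 Also: luciferase reporter driven by Pax8 target thyroperoxidase promoter measured by SteadyGlo luminescence.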 The class given is functional, cell-based.
Chain of Paired box protein Pax-8 (Q06710 whole entry): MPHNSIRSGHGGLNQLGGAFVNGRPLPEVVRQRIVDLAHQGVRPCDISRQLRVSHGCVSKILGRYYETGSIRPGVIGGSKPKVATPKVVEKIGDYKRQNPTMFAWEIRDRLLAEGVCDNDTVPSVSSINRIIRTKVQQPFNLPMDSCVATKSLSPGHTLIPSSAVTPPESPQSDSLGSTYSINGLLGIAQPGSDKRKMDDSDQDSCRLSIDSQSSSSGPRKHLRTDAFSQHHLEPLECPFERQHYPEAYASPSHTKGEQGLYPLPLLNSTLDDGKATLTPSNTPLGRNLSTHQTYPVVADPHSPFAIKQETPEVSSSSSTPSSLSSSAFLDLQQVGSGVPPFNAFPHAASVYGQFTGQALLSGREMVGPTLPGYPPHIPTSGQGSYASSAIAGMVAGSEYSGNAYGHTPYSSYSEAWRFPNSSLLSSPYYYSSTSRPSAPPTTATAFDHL
Assay [18] is described as follows: non-specific cell cytotoxicity, dose response, cytotoxicity control for PAX8 inhibitor project, plate reader, dry powder samples (AID 743021). In kind it is functional, cell-based.
A short description of assay [19]: HEK293T cytotoxicity, dose response, cytotoxicity control for miR-122 modulator project, cell-based, activator set, cherry-pick (AID 720690).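 Also: HEK293T human cells scored for general mammalian cytotoxicity.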 The class given is functional.
Assay [20] can be described thus: HEK293T cytotoxicity, dose response, cytotoxicity control for miR-122 modulator project, cell-based, inhibitor set, cherry-pick, set 2 (AID 720697). The class given is functional.
For assay [21], the target named is Disintegrin and metalloproteinase domain-containing protein 17 (Homo sapiens, UniProt P78536). Kind of assay: exosite inhibitors of ADAM17, dose response, biochemical (AID 743260).
Chain of Disintegrin and metalloproteinase domain-containing protein 17 (P78536 whole entry, the tested form may be a part): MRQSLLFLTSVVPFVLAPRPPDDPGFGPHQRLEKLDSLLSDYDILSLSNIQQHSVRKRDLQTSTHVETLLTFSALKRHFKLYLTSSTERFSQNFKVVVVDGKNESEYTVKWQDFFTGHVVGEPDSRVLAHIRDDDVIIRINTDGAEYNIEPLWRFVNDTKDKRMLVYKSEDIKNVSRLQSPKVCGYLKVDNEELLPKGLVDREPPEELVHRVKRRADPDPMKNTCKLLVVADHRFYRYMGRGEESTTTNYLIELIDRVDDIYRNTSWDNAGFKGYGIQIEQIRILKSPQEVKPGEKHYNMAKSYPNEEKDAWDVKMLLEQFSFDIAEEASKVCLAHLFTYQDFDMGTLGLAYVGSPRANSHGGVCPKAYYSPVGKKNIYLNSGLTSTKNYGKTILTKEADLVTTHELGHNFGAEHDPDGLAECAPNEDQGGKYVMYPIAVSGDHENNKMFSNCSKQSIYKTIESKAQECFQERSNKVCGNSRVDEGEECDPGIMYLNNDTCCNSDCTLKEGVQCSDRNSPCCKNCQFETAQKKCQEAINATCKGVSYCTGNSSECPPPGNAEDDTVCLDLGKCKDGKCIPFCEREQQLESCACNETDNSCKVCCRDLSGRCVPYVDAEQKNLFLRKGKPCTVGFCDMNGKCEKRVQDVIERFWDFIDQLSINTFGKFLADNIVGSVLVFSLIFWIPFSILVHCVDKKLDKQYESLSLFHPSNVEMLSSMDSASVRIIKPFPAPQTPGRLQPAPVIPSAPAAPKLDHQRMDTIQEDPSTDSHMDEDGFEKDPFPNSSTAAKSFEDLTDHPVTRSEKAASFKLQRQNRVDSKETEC
A short description of assay [22]: ADAM10 protease inhibitors, dose response, selectivity assay for ADAM17 exosite inhibitor project, biochemical, FRET peptide substrate, recombinant human ADAM10 (AID 743259).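 Also: ADAM10 enzyme cleaving a FRET peptide substrate.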

Usually EC50 stands for the concentration at which the effect is half-maximal. A word on the AC50: it is the concentration giving half of the maximal activity seen. The CC50 is the concentration that lowers cell viability or growth by half.

Activity calls are given as the source filed them. Bounds are passed on as bounds.

Chain of Glucose-6-phosphate 1-dehydrogenase (P11413 whole entry, the tested form may be a part): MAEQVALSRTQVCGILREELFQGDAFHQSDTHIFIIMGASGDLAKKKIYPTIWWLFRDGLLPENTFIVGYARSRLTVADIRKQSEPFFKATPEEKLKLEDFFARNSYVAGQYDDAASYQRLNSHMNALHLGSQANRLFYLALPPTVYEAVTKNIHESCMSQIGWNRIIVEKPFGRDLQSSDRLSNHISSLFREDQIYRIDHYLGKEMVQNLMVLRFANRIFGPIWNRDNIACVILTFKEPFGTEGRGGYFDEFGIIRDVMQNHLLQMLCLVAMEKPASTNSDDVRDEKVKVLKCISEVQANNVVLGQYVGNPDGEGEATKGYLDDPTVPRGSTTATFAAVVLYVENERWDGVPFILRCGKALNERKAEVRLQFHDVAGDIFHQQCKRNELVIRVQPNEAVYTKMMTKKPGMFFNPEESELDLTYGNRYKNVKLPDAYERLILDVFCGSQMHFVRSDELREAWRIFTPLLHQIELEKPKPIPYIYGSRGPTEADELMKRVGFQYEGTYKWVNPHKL
Chain of Tyrosyl-DNA phosphodiesterase 2 (O95551 whole entry): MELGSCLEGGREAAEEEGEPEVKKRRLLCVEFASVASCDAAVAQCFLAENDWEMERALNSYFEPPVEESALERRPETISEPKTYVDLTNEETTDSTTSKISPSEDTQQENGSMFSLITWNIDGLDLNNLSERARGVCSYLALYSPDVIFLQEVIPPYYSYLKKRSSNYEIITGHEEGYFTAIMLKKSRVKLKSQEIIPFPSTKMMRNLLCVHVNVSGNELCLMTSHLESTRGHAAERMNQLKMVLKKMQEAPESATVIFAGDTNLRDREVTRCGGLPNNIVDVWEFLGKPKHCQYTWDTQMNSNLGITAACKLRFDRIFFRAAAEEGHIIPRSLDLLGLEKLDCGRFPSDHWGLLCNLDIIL
Chain of Nonstructural protein 1 (Q194T2 whole entry): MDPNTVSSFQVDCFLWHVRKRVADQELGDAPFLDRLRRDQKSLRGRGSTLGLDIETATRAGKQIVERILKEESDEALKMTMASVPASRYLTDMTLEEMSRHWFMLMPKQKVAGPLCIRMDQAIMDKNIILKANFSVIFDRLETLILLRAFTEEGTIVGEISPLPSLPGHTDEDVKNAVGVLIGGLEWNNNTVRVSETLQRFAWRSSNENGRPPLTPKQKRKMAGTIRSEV

Regarding `Cn1sc2ccccc2c1=O`, the EC50 in [1] and in assay [2] was > 91.2 µM (inactive) in each case. Also, the IC50 at Hexokinase is > 25 µM (inactive); in assay [3], 37.3 µM (inactive).

Take `OCCCn1c(CCNc2nc(-c3ccc(F)cc3)cs2)nc2cc(C(F)(F)F)ccc21`: the AC50 is 16 µM (active) in assay [4]; 43.1 µM (active) in [5]; 51.5 µM (active) in assay [6]; 8.76 µM (active) in [7]; 5.8 µM (active) in assay [8].

On to `C[n+]1c(-c2ccccc2)cc2c(=Cc3ccc([N+](=O)[O-])cc3)c3ccccc3n21`, for which the AC50 on Caspase-6 is 0.309 µM (active). Besides, the IC50 in assay [9] was 31.5 µM (active); on Genome polyprotein, 14.2 µM (active); in assay [3] it was > 80 µM (inactive); in [11], > 128 µM (inactive); on Nonstructural protein 1, 9.36 µM (active). Besides, the EC50 in assay [10] is > 104 µM (inactive). Moreover, the CC50 with Vero is 34.8 µM (active).

With `C=C1C(=O)[C@]23C[C@H]1CCC2[C@@]1(C)C(C[C@@H]3O)[C@](C)(C(=O)O)CC[C@@H]1O` (stereo partly specified), the EC50 in [1] was > 91.3 µM (inactive); in [2], > 10.1 µM (inactive). Moreover, the figures for the IC50 at Interleukin-8 [12] and on Interleukin-8 [13] were 0.817 µM (active) and 39.7 µM (inactive), respectively.

Turning to `Cc1cccc(C(C#N)c2nc3ccccc3nc2C(F)(F)F)c1` (stereo unspecified), the EC50 in assay [14] and in assay [17] was > 29.9 µM (inactive) each time. The IC50 in assay [15] is > 29.9 µM (inactive); in assay [16], 1.58 µM (active).

As to `Brc1ccc2nc(-c3ccc(CN4CCC(c5nc6ccccc6[nH]5)CC4)cc3)c(-c3ccccc3)nc2c1`, the AC50 at Paired box protein Pax-8 was 9.03 µM (active); in assay [18] it was 37.8 µM (active).

Consider `CN1C(=O)c2cc(NC(=O)c3ccc(C(F)(F)F)cc3)ccc2OC[C@H]2O[C@H](CC(=O)NC3Cc4ccccc4C3)CC[C@@H]21`, for which the AC50 in assay [19] was 0.335 µM (active); in assay [20], 0.324 µM (active).

For the molecule `Cc1ccc(OCCOCCOc2ccc(Br)cc2/C=N\NC(=O)c2ccncc2)cc1`, the IC50 in assay [21] and in assay [22] was > 69.5 µM (inactive) each time.
